Measured values from patent publication US5977373A, “Thiadiazolyl and oxadiazolyl phenyl oxazolidinone antibacterial agents” (Pharmacia & Upjohn Company, priority 1998, dated 1999).
Values after ≈ are worked out from the molar mass of the structure shown.

How the values were obtained:
Type in all cases: cell-based
[1] = system: S. Aureus UC ® 9213; experiment: In vitro minimum inhibitory concentration (MIC) by agar dilution, gram-positive bacteria (Table 1); details: Staphylococcus aureus, UC9213
Text: (§1) The oxazolidinone antibacterial agents of this invention have useful activity against a variety of microorganisms. The in vitro activity of compounds of this invention can be assessed by standard testing procedures such as the determination of minimum inhibitory concentration (MIC) by agar dilution as described in "Methods for Dilution Antimicrobial Susceptibility Tests for Bacteria That Grow Aerobically" (MFT) published January 1983 by the National Committee for Clinical Laboratory Standards, 771 East Lancaster Avenue, Villanova, Pa. 19084, USA. The activity of selected compounds of this invention against Staphylococcus aureus and Streptococcus pneumoniae are shown in Table 1.

[2] = system: S. pneumoniae UC ® 9912; experiment: as above; details: Streptococcus pneumoniae, UC9912
Text: as §1

[3] = system: HI 30063; experiment: MIC for a gram negative bacterial strain (Table 2); details: gram negative bacterial strain HI 30063

| Compound | MIC [1] | MIC [2] | MIC [3] |
| --- | --- | --- | --- |
| CC(=O)NC[C@H]1CN(c2ccc(-c3nnc([S+](C)[O-])s3)c(F)c2)C(=O)O1 (stereo partly drawn) [Example 47, (5S)-N-[[3-[3-Fluoro-4-[5-(methylsulfinyl)-1,3,4-thiadiazol-2-yl]phenyl]-2-oxo-5-oxazolidinyl]methyl]acetamide] | 2 µg/mL (≈ 5.02 µM) | 0.25 µg/mL (≈ 0.627 µM) | 4 µg/mL (≈ 10 µM) |
| CC(=O)NC[C@H]1CN(c2ccc(-c3nnc(CN)s3)c(F)c2)C(=O)O1 [Example 6, (S)-N-[[3-[4-[5-(Aminomethyl)-1,3,4-thiadiazol-2-yl]-3-fluorophenyl]-2-oxo-5-oxazolidinyl]methyl]acetamide] | 8 µg/mL (≈ 21.9 µM) | < 0.125 µg/mL | 2 µg/mL (≈ 5.47 µM) |
| CC(=O)NC[C@H]1CN(c2ccc(-c3nnc(C#N)s3)c(F)c2)C(=O)O1 [Example 1, (S)-N-[[3-[4-(5-Cyano-1,3,4-thiadiazol-2-yl)-3-fluorophenyl]-2-oxo-5-oxazolidinyl]methyl]acetamide] | 0.5 µg/mL (≈ 1.38 µM) | < 0.125 µg/mL | 2 µg/mL (≈ 5.53 µM) |
| CC(=O)NC[C@H]1CN(c2ccc(-c3n[nH]c(=O)s3)c(F)c2)C(=O)O1 [Example 29, (S)-N-[[3-[4-(4,5-Dihydro-5-oxo-1,3,4-thiadiazol-2-yl)-3-fluorophenyl]-2-oxo-5-oxazolidinyl]methyl]acetamide] | 1 µg/mL (≈ 2.84 µM) | 0.25 µg/mL (≈ 0.71 µM) | 4 µg/mL (≈ 11.4 µM) |
| CCc1nnc(-c2ccc(N3C[C@H](CNC(C)=O)OC3=O)cc2F)s1 [Example 4, (S)-N-[[3-[4-(5-Ethyl-1,3,4-thiadiazol-2-yl)-3-fluorophenyl]-2-oxo-5-oxazolidinyl]methyl]acetamide] | 1 µg/mL (≈ 2.74 µM) | 0.25 µg/mL (≈ 0.686 µM) | 4 µg/mL (≈ 11 µM) |
| CC(=O)NC[C@H]1CN(c2ccc(-c3nnc(CC(N)=O)s3)c(F)c2)C(=O)O1 [Example 14, (S)-5-[4-[5-[(Acetylamino)methyl]-2-oxo-3-oxazolidinyl]-2-fluorophenyl]-1,3,4-thiadiazole-2-acetamide] | 4 µg/mL (≈ 10.2 µM) | < 0.125 µg/mL | 4 µg/mL (≈ 10.2 µM) |
| CC(=O)NC[C@H]1CN(c2ccc(-c3nnc(CC[S+](C)[O-])s3)c(F)c2)C(=O)O1 (stereo partly drawn) [Example 24, (S)-N-[[3-[3-Fluoro-4-[5-[2-(methylsulfinyl)ethyl]-1,3,4-thiadiazol-2-yl]phenyl]-2-oxo-5-oxazolidinyl]methyl]acetamide] | 4 µg/mL (≈ 9.38 µM) | 0.25 µg/mL (≈ 0.586 µM) | 4 µg/mL (≈ 9.38 µM) |
| CSc1nnc(-c2ccc(N3C[C@H](CNC(C)=O)OC3=O)cc2F)s1 [Example 31, (S)-N-[[3-[3-Fluoro-4-[5-(methylthio)-1,3,4-thiadiazol-2-yl]phenyl]-2-oxo-5-oxazolidinyl]methyl]acetamide] | 0.5 µg/mL (≈ 1.31 µM) | < 0.125 µg/mL | 4 µg/mL (≈ 10.5 µM) |
| CC(=O)NC[C@H]1CN(c2ccc(-c3nnc(CCCO)s3)c(F)c2)C(=O)O1 [Example 50, (S)-N-[[3-[3-Fluoro-4-[5-(3-hydroxypropyl)-1,3,4-thiadiazol-2-yl]phenyl]-2-oxo-5-oxazolidinyl]methyl]acetamide] | 2 µg/mL (≈ 5.07 µM) | 0.25 µg/mL (≈ 0.634 µM) | 4 µg/mL (≈ 10.1 µM) |
| CC(=O)NC[C@H]1CN(c2ccc(-c3nnc(C)s3)c(F)c2)C(=O)O1 [Example 3, (S)-N-[[3-[3-Fluoro-4-(5-methyl-1,3,4-thiadiazol-2-yl)phenyl]-2-oxo-5-oxazolidinyl]methyl]acetamide] | 1 µg/mL (≈ 2.85 µM) | < 0.125 µg/mL | 2 µg/mL (≈ 5.71 µM) |
| CC(=O)NC[C@H]1CN(c2ccc(-c3nnc(COC(C)=O)s3)c(F)c2)C(=O)O1 [Example 10, (S)-N-[[3-[4-(5-Acetoxymethyl-1,3,4-thiadiazol-2-yl)-3-fluorophenyl]-2-oxo-5-oxazolidinyl]methyl]acetamide] | 1 µg/mL (≈ 2.45 µM) | < 0.125 µg/mL | 4 µg/mL (≈ 9.79 µM) |
| CC(=O)NC[C@H]1CN(c2ccc(-c3ncno3)c(F)c2)C(=O)O1 [Example 40, (S)-N-[[3-[3-Fluoro-4-(1,2,4-oxadiazol-5-yl)phenyl]-2-oxo-5-oxazolidinyl]methyl]acetamide] | 2 µg/mL (≈ 6.24 µM) | 0.5 µg/mL (≈ 1.56 µM) |  |
| CC(=O)NC[C@H]1CN(c2ccc(-c3nnc(CCCl)s3)c(F)c2)C(=O)O1 [Example 42, (S)-N-[[3-[4-[5-(2-Chloroethyl)-1,3,4-thiadiazol-2-yl]-3-fluorophenyl]-2-oxo-5-oxazolidinyl]methyl]acetamide] | 1 µg/mL (≈ 2.51 µM) | < 0.125 µg/mL |  |
| CC(=O)NC[C@H]1CN(c2ccc(-c3nnc(CC(C)O)s3)c(F)c2)C(=O)O1 (stereo partly drawn) [Example 28, (5S)-N-[[3-[3-Fluoro-4-[5-(2-hydroxypropyl)-1,3,4-thiadiazol-2-yl]phenyl]-2-oxo-5-oxazolidinyl]methyl]acetamide] | 2 µg/mL (≈ 5.07 µM) | 0.25 µg/mL (≈ 0.634 µM) |  |
| CC(=O)NC[C@H]1CN(c2ccc(-c3nnc(C(C)C)s3)c(F)c2)C(=O)O1 [Example 48, (S)-N-[[3-[3-Fluoro-4-[5-(1-methylethyl)-1,3,4-thiadiazol-2-yl]phenyl]-2-oxo-5-oxazolidinyl]methyl]acetamide] | 1 µg/mL (≈ 2.64 µM) | 0.25 µg/mL (≈ 0.661 µM) |  |
| CC(=O)NC[C@H]1CN(c2ccc(-c3nnc(NC=O)s3)c(F)c2)C(=O)O1 [Example 41, (S)-N-[[3-[3-Fluoro-4-[5-(formylamino)-1,3,4-thiadiazol-2-yl]phenyl]-2-oxo-5-oxazolidinyl]methyl]acetamide] | 4 µg/mL (≈ 10.5 µM) | 0.5 µg/mL (≈ 1.32 µM) |  |
| COCc1nnc(-c2ccc(N3C[C@H](CNC(C)=O)OC3=O)cc2F)s1 [Example 12, (S)-N-[[3-[3-Fluoro-4-[5-(methoxymethyl)-1,3,4-thiadiazol-2-yl]phenyl]-2-oxo-5-oxazolidinyl]methyl]acetamide] | 2 µg/mL (≈ 5.26 µM) | 0.25 µg/mL (≈ 0.657 µM) |  |
| CC(=O)NC[C@H]1CN(c2ccc(-c3nnc(CCN)s3)c(F)c2)C(=O)O1 [Example 44, (S)-N-[[3-[4-[5-(2-Aminoethyl)-1,3,4-thiadiazol-2-yl]-3-fluorophenyl]-2-oxo-5-oxazolidinyl]methyl]acetamide] | > 16 µg/mL | 0.25 µg/mL (≈ 0.659 µM) |  |

Now from value to compound:

| MIC [1] | MIC [2] | MIC [3] | Compound |
| --- | --- | --- | --- |
| 2 µg/mL | < 0.5 µg/mL | 4 µg/mL | CC(=O)OCC(=O)NCc1nnc(-c2ccc(N3C[C@H](CNC(C)=S)OC3=O)cc2F)s1 [Example 78, 2-({[5-(4-{(5S)-5-[(ethanethioylamino)methyl]-2-oxo-1,3-oxazolidin-3-yl}-2-fluorophenyl)-1,3,4-thiadiazol-2-yl]methyl}amino)-2-oxoethyl acetate] |
| 4 µg/mL (≈ 10.5 µM) | < 0.125 µg/mL | 4 µg/mL (≈ 10.5 µM) | CC(=O)NC[C@H]1CN(c2ccc(-c3nnc([C@@H](C)N)s3)c(F)c2)C(=O)O1 [Example 56, [S-(R*,S*)]-N-[[3-[4-[5-(1-Aminoethyl)-1,3,4-thiadiazol-2-yl]-3-fluorophenyl]-2-oxo-5-oxazolidinyl]methyl]acetamide] |
| 1 µg/mL (≈ 2.48 µM) | < 0.125 µg/mL | 4 µg/mL (≈ 9.91 µM) | CC(=O)NC[C@H]1CN(c2ccc(-c3nnc(CCCC#N)s3)c(F)c2)C(=O)O1 [Example 61, (S)-N-[[3-[4-[5-(3-Cyanopropyl)-1,3,4-thiadiazol-2-yl]-3-fluorophenyl]-2-oxo-5-oxazolidinyl]methyl]acetamide] |
| < 0.5 µg/mL | < 0.5 µg/mL | < 0.5 µg/mL | CC(=S)NC[C@H]1CN(c2ccc(-c3nnc(CN)s3)c(F)c2)C(=O)O1 [Example 77, N-[((5S)-3-{4-[5-(aminomethyl)-1,3,4-thiadiazol-2-yl]-3-fluorophenyl}-2-oxo-1,3-oxazolidin-5-yl)methyl]ethanethioamide] |
| 2 µg/mL (≈ 5.26 µM) | 0.25 µg/mL (≈ 0.657 µM) | 4 µg/mL (≈ 10.5 µM) | CC(=O)NC[C@H]1CN(c2ccc(-c3nnc([C@H](C)O)s3)c(F)c2)C(=O)O1 [Example 51, [S-(R*,R*)]-N-[[3-[3-Fluoro-4-[5-(1-hydroxyethyl)-1,3,4-thiadiazol-2-yl]phenyl]-2-oxo-5-oxazolidinyl]methyl]acetamide] |
| 0.25 µg/mL (≈ 0.707 µM) | < 0.125 µg/mL | 1 µg/mL (≈ 2.83 µM) | NC(=S)NC[C@H]1CN(c2ccc(-c3nncs3)c(F)c2)C(=O)O1 [Example 75, (S)-[[3-[3-Fluoro-4-(1,3,4-thiadiazol-2-yl)phenyl]-2-oxo-5-oxazolidinyl]methyl]thiourea] |
| 1 µg/mL (≈ 2.54 µM) | < 0.125 µg/mL | 2 µg/mL (≈ 5.08 µM) | CC(=O)NC[C@H]1CN(c2ccc(-c3nnc(CC=NO)s3)c(F)c2)C(=O)O1 [Example 64, (S)-N-[[3-[3-Fluoro-4-[5-[2-(hydroxyimino)ethyl]-1,3,4-thiadiazol-2-yl]phenyl]-2-oxo-5-oxazolidinyl]methyl]acetamide] |
| 2 µg/mL (≈ 5.26 µM) | 0.25 µg/mL (≈ 0.657 µM) | 4 µg/mL (≈ 10.5 µM) | CC(=O)NC[C@H]1CN(c2ccc(-c3nnc([C@@H](C)O)s3)c(F)c2)C(=O)O1 [Example 52, [S-(R*,S*)]-N-[[3-[3-Fluoro-4-[5-(1-hydroxyethyl)-1,3,4-thiadiazol-2-yl]phenyl]-2-oxo-5-oxazolidinyl]methyl]acetamide] |
| 4 µg/mL (≈ 9.34 µM) | < 0.5 µg/mL |  | CC(=O)NC[C@H]1CN(c2ccc(-c3nnc(CS(C)(=O)=O)s3)c(F)c2)C(=O)O1 [Example 69, (S)-N-[[3-[3-Fluoro-4-[5-[(methylsulfonyl)methyl]-1,3,4-thiadiazol-2-yl]phenyl]-2-oxo-5-oxazolidinyl]methyl]acetamide] |
| 8 µg/mL (≈ 18.4 µM) | 2 µg/mL (≈ 4.59 µM) |  | CON=C(C)CCc1nnc(-c2ccc(N3C[C@H](CNC(C)=O)OC3=O)cc2F)s1 [Example 65, (S)-N-[[3-[3-Fluoro-4-[5-[3-(methoxyimino)butyl]-1,3,4-thiadiazol-2-yl]phenyl]-2-oxo-5-oxazolidinyl]methyl]acetamide] |
| 16 µg/mL (≈ 37.8 µM) | < 0.5 µg/mL |  | CC(=O)NC[C@H]1CN(c2ccc(-c3nnc(CNC(=O)CO)s3)c(F)c2)C(=O)O1 [Example 67] |
